Structures can show the parent of a compound that is named as a salt. Where two headings read alike, the source gives them in different places.
Key:
[1] = In Vitro Microsome Stability Assay (rat); format: in vitro ADME
Outline: (§1)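 Test article, added from a 0.25 mM DMSO stock, was incubated with liver microsomes (20 mg/mL stock) in 0.1 M potassium phosphate at 37° C, with the reaction started by NADPH. Samples were quenched with acetonitrile containing internal standard at 0 and 30 min and analysed by LC-MS/MS. Values are % remaining at 30 min versus 0 min, using IS-normalised AUC ratios.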

[2] = test system: multiple myeloma cell line U266B1; experiment: U266 Cell Viability Assay; format: cell-based, human; conditions: 48 hr
Outline: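 U266B1 myeloma cells in RPMI 1640 with 10% FBS were treated with compound dilutions for 48 h at 37° C, 5% CO2. Viability was read as CellTiter-Glo luminescence. Data for structures drawn without stereochemistry refer to stereoisomer mixtures.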

[3] = test system: full length TNFα (amino acids 1-233) fused to Gaussia Luciferase; experiment: Dox Induced TNFα-FL-Gluc Assay; format: cell-based; conditions: 24 hr, read-out: 24 hr Dox Inducible TNFaFLGluc 293FRT/TO: Mean IC50
Outline: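 Stable Flp-In 293 T-REx line expressing doxycycline-inducible full-length TNFα fused to Gaussia luciferase; cells plated the day before, then treated with compound dilutions in doxycycline-containing medium at 37° C, 5% CO2. Unspecified stereocentres mean stereoisomer mixtures were tested.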

[4] = test system: multiple myeloma cell line NCl-H929; experiment: H929 Cell Viability Assay; format: cell-based, human
Outline: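 NCI-H929 myeloma cells in RPMI 1640 with 10% FBS were treated with compound dilutions for 48 h at 37 °C, and viability was then read by CellTiter-Glo luminescence. Compounds drawn without stereochemistry were tested as stereoisomer mixtures.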

[5] = In Vitro Microsome Stability Assay (human); format: in vitro ADME
Outline: as §1

[6] = test system: PD1 signal sequence plus 10 amino acids fused to Gaussia Luciferase (PD1-ss+10aa/Gaussia Luciferase); experiment: Dox Induced PD1-ss-Gluc Assay; format: cell-based; conditions: 24 hr, read-out: 24 hr Dox Inducible PD1ssGluc 293FRT/TO: Mean IC50
Outline: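 Stable Flp-In 293 T-REx line expressing the fusion under tetracycline-inducible control, plated the day before assay. Compound dilutions added with doxycycline and incubated at 37 °C, 5% CO2; unspecified stereocentres mean data refer to stereoisomer mixtures.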

[7] = In Vitro Microsome Stability Assay (mouse); format: in vitro ADME
Outline: as §1

[8] = In Vitro Microsome Stability Assay (monkey); format: in vitro ADME
Outline: as §1

[9] = Homo sapiens, U-266, U266, read-out: 48 hr U266 Viability Celltiter-Glo: Mean EC50
[10] = Homo sapiens, NCI-H929, 48 h, H929, read-out: 48 hr H929 Viability Celltiter-Glo: Mean EC50

Liver Microsome Stability-% Left after 30 min w/ NADPH (%) Rat ([1]; rat, 30 min, NADPH) [%]	EC50 [2, 9] [µM]	IC50 ([3]; 293FRT/TO) [µM]	EC50 [4, 10] [µM]	Liver Microsome Stability-% Left after 30 min w/ NADPH (%) Human ([5]; human, 30 min, NADPH) [%]	IC50 ([6]; 293FRT/TO) [µM]	Liver Microsome Stability-% Left after 30 min w/ NADPH (%) Mouse ([7]; mouse, 30 min, NADPH) [%]	Liver Microsome Stability-% Left after 30 min w/ NADPH (%) Monkey ([8]; monkey, 30 min, NADPH) [%]	EC50 ([2]; U266, read-out: 48 hr U266 Viability Celltiter-Glo: Mean EC50) [µM]	EC50 ([4]; 48 hr, H929, read-out: 48 hr H929 Viability Celltiter-Glo: Mean EC50) [µM]	Liver Microsome Stability-% Left after 30 min w/ NADPH (%) Rat ([1]; rat liver microsomes, 30 min w/ NADPH) [%]	EC50 ([2]; Homo sapiens, U-266, U266, Celltiter-Glo) [µM]	IC50 ([3]; Dox inducible, 293FRT/TO cells) [µM]	EC50 ([4]; Homo sapiens, NCI-H929, 48 h, H929, Celltiter-Glo) [µM]	Liver Microsome Stability-% Left after 30 min w/ NADPH (%) Human ([5]; human liver microsomes, 30 min w/ NADPH) [%]	IC50 ([6]; Dox inducible, 293FRT/TO cells) [µM]	Liver Microsome Stability-% Left after 30 min w/ NADPH (%) Mouse ([7]; mouse liver microsomes, 30 min w/ NADPH) [%]	Liver Microsome Stability-% Left after 30 min w/ NADPH (%) Monkey ([8]; monkey liver microsomes, 30 min w/ NADPH) [%]	SMILES
0.13	> 25	> 25	> 25	0.05	> 25	0.08	0.07	–	–	–	–	–	–	–	–	–	–	COc1ccccc1S(=O)(=O)N1CCCN(CC2CCCCC2)CCCN(S(=O)(=O)N2CCCCC2)CC2(CC2)C1 [A33, 9-(cyclohexylmethyl)-5-(2-methoxybenzenesulfonyl)-13-(piperidine-1-sulfonyl)-5,9,13-triazaspiro[2.11]tetradecane]
0.61	–	> 25	–	0.09	2.68	0.17	0.19	> 25	> 25	–	–	–	–	–	–	–	–	C=C1CN(S(=O)(=O)c2ccc(C)cc2)CCCN(CC2CCCCC2)CCCN(S(=O)(=O)C2CCCCC2)C1 [A8, 1-(cyclohexanesulfonyl)-9-(cyclohexylmethyl)-5-(4-methylbenzenesulfonyl)-3-methylidene-1,5,9-triazacyclododecane]
50.3	> 25	0.886	1.48	46.7	0.0185	60.8	38.7	–	–	–	–	–	–	–	–	–	–	C=C1CN(S(=O)(=O)c2ccc(N(C)C)cc2)CCCN(CC2CCCCC2)CCCN(S(=O)(=O)N2CCc3cc(Br)ccc3C2)C1 [A60, 4-({5-[(6-bromo-1,2,3,4-tetrahydroisoquinolin-2-yl)sulfonyl]-9-(cyclohexylmethyl)-3-methylidene-1,5,9-triazacyclododecan-1-yl}sulfonyl)-N,N-dimethylaniline]
0.14	> 25	> 25	> 25	0.08	17.5	0.2	0.1	–	–	–	–	–	–	–	–	–	–	O=S(=O)(C1CCCCC1)N1CCCN(CC2CCCCC2)CCCN(S(=O)(=O)N2CCCCC2)CC2(CC2)C1 [A41]
–	–	–	–	–	–	–	–	–	–	2.79	16.6	> 25	> 25	12.1	> 25	2.21	1.7	CN(C)c1ccc(S(=O)(=O)N2CCCN(CC3CCCCC3)CCCN(S(=O)(=O)N3CCCCC3)C2)cc1 [B4, 4-{[7-(cyclohexylmethyl)-3-(piperidine-1-sulfonyl)-1,3,7-triazecan-1-yl]sulfonyl}-N,N-dimethylaniline]
0.16	> 25	1.55	2.3	0.3	0.0305	0.08	0.23	–	–	–	–	–	–	–	–	–	–	C=C1CN(S(=O)(=O)c2ccc(N(C)C)cc2)CCCN(CC2CCCCC2)CCCN(S(=O)(=O)N2CCc3nc(Cl)ccc3C2)C1 [A82, 4-({5-[(2-chloro-5,6,7,8-tetrahydro-1,6-naphthyridin-6-yl)sulfonyl]-9-(cyclohexylmethyl)-3-methylidene-1,5,9-triazacyclododecan-1-yl}sulfonyl)-N,N-dimethylaniline]
57.3	> 25	1.26	1.63	44.5	0.0328	53.2	42.6	–	–	–	–	–	–	–	–	–	–	C=C1CN(S(=O)(=O)c2ccc(N(C)C)cc2F)CCCN(CC2CCCCC2)CCCN(S(=O)(=O)N2CCc3cc(Cl)ccc3C2)C1 [A56, 4-({5-[(6-chloro-1,2,3,4-tetrahydroisoquinolin-2-yl)sulfonyl]-9-(cyclohexylmethyl)-3-methylidene-1,5,9-triazacyclododecan-1-yl}sulfonyl)-3-fluoro-N,N-dimethylaniline]
0.1	21.9	> 25	> 25	0.05	0.326	0.24	0.08	–	–	–	–	–	–	–	–	–	–	CN(C)c1ccc(S(=O)(=O)N2CCCN(CC3CCCCC3)CCCN(S(=O)(=O)N3CCCCC3)CC3(CC3)C2)cc1 [A19, 4-((9-(cyclohexylmethyl)-13-(piperidin-1-ylsulfonyl)-5,9,13-triazaspiro[2.11]tetradecan-5-yl)sulfonyl)-N,N-dimethylaniline hydrochloride]
6	10.4	> 25	> 25	0.05	0.761	0.26	0.11	–	–	–	–	–	–	–	–	–	–	C=C1CN(S(=O)(=O)c2ccc(N(C)C)cc2)CCCN(CC2CCCCC2)CCCN(S(=O)(=O)N2CCC(C#N)CC2)C1 [A39, 1-{[9-(cyclohexylmethyl)-5-[4-(dimethylamino)benzenesulfonyl]-3-methylidene-1,5,9-triazacyclododecan-1-yl]sulfonyl}piperidine-4-carbonitrile]
0.39	> 25	3.5	9.21	0.13	0.188	0.02	0.35	–	–	–	–	–	–	–	–	–	–	C=C1CN(S(=O)(=O)c2ccc(N(C)C)cc2)CCCN(CC2CCCCC2)CCCN(S(=O)(=O)N2CCC(OC(C)C)CC2)C1 [A66, 4-{[9-(cyclohexylmethyl)-3-methylidene-5-{[4-(propan-2-yloxy)piperidin-1-yl]sulfonyl}-1,5,9-triazacyclododecan-1-yl]sulfonyl}-N,N-dimethylaniline]
0.14	> 25	> 25	> 25	0.09	1.11	0.34	0.66	–	–	–	–	–	–	–	–	–	–	C=C1CN(S(=O)(=O)c2ccc(C)cc2)CCCN(CC2CCOCC2)CCCN(S(=O)(=O)c2ccc(N(C)C)cc2)C1 [A9, N,N-dimethyl-4-{[5-(4-methylbenzenesulfonyl)-3-methylidene-9-[(oxan-4-yl)methyl]-1,5,9-triazacyclododecan-1-yl]sulfonyl}aniline]

Reference: patent publication US11578055B2, “Triazacyclododecansulfonamide (“TCD”)-based protein secretion inhibitors” (KEZAR LIFE SCIENCES, priority 2018, dated 2023)
